Assay results: patent publication US8202857B2, “1,3-oxazepan-2-one and 1,3-diazepan-2-one inhibitors of 11β-hydroxysteroid dehydrogenase 1” (Vitae Pharmaceuticals, Inc., priority 2008, dated 2012)

Target: T1, human 11β-HSD1 (Homo sapiens, UniProt P28845)
T1 construct: expressed in transfected cells; host or cells: CHO cells (microsomes)
Experiment: Inhibition of a microsomal preparation of 11β-HSD1 (SPA), Biological Test Example 1
Assay type: biochemical
Details: microsomes from CHO cells overexpressing human 11β-HSD1; for IC50: read-out: IC50 Range^a; for inhibition at 0.1 µM: read-out: Average % inhibition at 100 nM, 100 nM; for Average % inhibition at 100 nM: 0.1 µM
Procedure: All reactions were carried out at rt in 96 well clear flexible PET Microbeta plates (PerkinElmer). […] After a 10 minute pre-incubation, 50 μL of enzyme solution containing microsomes isolated from CHO cells overexpressing human 11β-HSD1 (10-20 μg/ml of total protein) was added, and the plates were incubated for 90 minutes at rt. The reaction was stopped by adding 50 μl of the SPA beads suspension containing 10 μM 18β-glycyrrhetinic acid, 5 mg/ml protein A coated YSi SPA beads (GE Healthcare) and 3.3 μg/ml of anti-cortisol antibody (East Coast Biologics) in Superblock buffer (Bio-Rad). The plates were shaken for 120 minutes at rt, and the SPA signal corresponding to [^3H]cortisol was measured on a Microbeta plate reader.

T1 sequence (P28845 whole entry): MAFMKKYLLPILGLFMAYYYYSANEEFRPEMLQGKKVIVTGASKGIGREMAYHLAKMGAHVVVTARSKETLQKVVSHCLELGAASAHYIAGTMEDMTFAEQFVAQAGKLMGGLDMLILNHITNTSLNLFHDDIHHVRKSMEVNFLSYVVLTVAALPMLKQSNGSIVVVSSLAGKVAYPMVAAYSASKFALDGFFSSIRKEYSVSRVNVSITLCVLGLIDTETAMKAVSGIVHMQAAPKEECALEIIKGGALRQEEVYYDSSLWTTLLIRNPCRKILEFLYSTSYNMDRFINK

IC50 [nM]	inhibition at 0.1 µM [%]	Average % inhibition at 100 nM [%]	Structure (SMILES)
< 100	96.2	–	C=CC[C@]1(c2ccccc2)CCCN([C@@H](C)c2ccc(Br)cc2)C(=O)N1 (single isomer, unassigned) [EXAMPLE 2 Isomer 2]
< 100	–	85.8	C[C@@H](c1ccc(Br)cc1)N1CCC[C@@](CCO)(c2ccccc2)NC1=O (single isomer, unassigned) [EXAMPLE 3 Isomer 1]
< 100	97.6	–	C[C@@H](c1ccc(Br)cc1)N1CCC[C@](CCO)(c2ccccc2)NC1=O (single isomer, unassigned) [EXAMPLE 3 Isomer 2]
< 100	86.2	–	C[C@@H](c1ccc(Br)cc1)N1CCC[C@](CC(C)(C)O)(c2ccccc2)OC1=O (single isomer, unassigned) [EXAMPLE 15 Isomer 1]
> 100	31.7	–	C[C@@H](c1ccc(Br)cc1)N1CCC[C@@](CC(C)(C)O)(c2ccccc2)OC1=O (single isomer, unassigned) [EXAMPLE 15 Isomer 2]
> 100	–	41.6	C[C@@H](c1ccc(O)cc1)N1CCCC(CC(C)(C)O)(c2ccccc2)OC1=O (single isomer, unassigned) [EXAMPLE 17 Isomer 1]
< 100	–	68.5	C[C@@H](c1ccc(O)cc1)N1CCCC(CC(C)(C)O)(c2ccccc2)OC1=O (single isomer, unassigned) [EXAMPLE 17 Isomer 2]
< 100	95.6	–	C[C@@H](c1ccc(Br)cc1)N1CCC[C@](CCCO)(c2ccccc2)NC1=O [EXAMPLE 1, (S)-1-((S)-1-(4-bromophenyl)ethyl)-4-(3-hydroxypropyl)-4-phenyl-1,3-diazepan-2-one]
< 100	95.8	–	CC(O)C[C@]1(c2ccccc2)CCCN([C@@H](C)c2ccc(Br)cc2)C(=O)N1 (stereo partly drawn) [EXAMPLE 4, (4S)-1-((S)-1-(4-bromophenyl)ethyl)-4-(2-hydroxypropyl)-4-phenyl-1,3-diazepan-2-one]
< 100	93.7	–	C[C@@H](c1ccc(Br)cc1)N1CCC[C@](CCC(N)=O)(c2ccccc2)NC1=O [EXAMPLE 5, 3-((S)-1-((S)-1-(4-bromophenyl)ethyl)-2-oxo-4-phenyl-1,3-diazepan-4-yl)propanamide]
< 100	95.5	–	COc1ccc(-c2ccc([C@H](C)N3CCC[C@](CCO)(c4ccccc4)NC3=O)cc2)cn1 [EXAMPLE 6, (S)-4-(2-hydroxyethyl)-1-((S)-1-(4-(6-methoxypyridin-3-yl)phenyl)ethyl)-4-phenyl-1,3-diazepan-2-one]
< 100	93	–	C=C(C)C[C@]1(c2ccccc2)CCCN([C@@H](C)c2ccc(Br)cc2)C(=O)N1 [EXAMPLE 7, (S)-1-((S)-1-(4-bromophenyl)ethyl)-4-(2-methylallyl)-4-phenyl-1,3-diazepan-2-one]
< 100	97.5	–	C[C@@H](c1ccc(Br)cc1)N1CCC[C@](CC(C)(C)O)(c2ccccc2)NC1=O [EXAMPLE 8, (S)-1-((S)-1-(4-bromophenyl)ethyl)-4-(2-hydroxy-2-methylpropyl)-4-phenyl-1,3-diazepan-2-one]
< 100	95.2	–	C=C(C)C[C@]1(c2ccccc2)CCCN([C@@H](C)c2ccc(-c3ccn(C)c(=O)c3)cc2)C(=O)N1 [EXAMPLE 9, (S)-1-((S)-1-(4-(1-methyl-2-oxo-1,2-dihydropyridin-4-yl)phenyl)ethyl)-4-(2-methylallyl)-4-phenyl-1,3-diazepan-2-one]
< 100	97.1	–	C=C(C)C[C@]1(c2ccccc2)CCCN([C@@H](C)c2ccc(-c3ccc(=O)n(C)c3)cc2)C(=O)N1 [EXAMPLE 10, (S)-1-((S)-1-(4-(1-methyl-6-oxo-1,6-dihydropyridin-3-yl)phenyl)ethyl)-4-(2-methylallyl)-4-phenyl-1,3-diazepan-2-one]
< 100	98.3	–	C[C@@H](c1ccc(-c2ccn(C)c(=O)c2)cc1)N1CCC[C@](CC(C)(C)O)(c2ccccc2)NC1=O [EXAMPLE 11, (S)-4-(2-hydroxy-2-methylpropyl)-1-((S)-1-(4-(1-methyl-2-oxo-1,2-dihydropyridin-4-yl)phenyl)ethyl)-4-phenyl-1,3-diazepan-2-one]
< 100	92.9	–	C[C@@H](c1ccc(-c2ccc(=O)n(C)c2)cc1)N1CCC[C@](CC(C)(C)O)(c2ccccc2)NC1=O [EXAMPLE 12, (S)-4-(2-hydroxy-2-methylpropyl)-1-((S)-1-(4-(1-methyl-6-oxo-1,6-dihydropyridin-3-yl)phenyl)ethyl)-4-phenyl-1,3-diazepan-2-one]
< 100	94.2	–	C[C@@H](c1ccc(-c2ccn(C3CC3)c(=O)c2)cc1)N1CCC[C@](CC(C)(C)O)(c2ccccc2)NC1=O [EXAMPLE 13, (S)-1-((S)-1-(4-(1-cyclopropyl-2-oxo-1,2-dihydropyridin-4-yl)phenyl)ethyl)-4-(2-hydroxy-2-methylpropyl)-4-phenyl-1,3-diazepan-2-one]
< 100	86.8	–	C[C@@H](c1ccc(-c2ccn(C3CC3)c(=O)c2)cc1)N1CCC[C@](CC(C)(C)O)(c2ccccc2)OC1=O [EXAMPLE 18, (S)-3-((S)-1-(4-(1-cyclopropyl-2-oxo-1,2-dihydropyridin-4-yl)phenyl)ethyl)-7-(2-hydroxy-2-methylpropyl)-7-phenyl-1,3-oxazepan-2-one]
< 100	80.3	–	C[C@@H](c1ccc(-c2ccn(C)c(=O)c2)cc1)N1CCC[C@](CC(C)(C)O)(c2ccccc2)OC1=O [EXAMPLE 19, (S)-7-(2-hydroxy-2-methylpropyl)-3-((S)-1-(4-(1-methyl-2-oxo-1,2-dihydropyridin-4-yl)phenyl)ethyl)-7-phenyl-1,3-oxazepan-2-one]
< 100	97.4	–	C[C@@H](c1ccc(-c2ccc(=O)n(C3CC3)c2)cc1)N1CCC[C@](CC(C)(C)O)(c2ccccc2)NC1=O [EXAMPLE 20, (S)-1-((S)-1-(4-(1-cyclopropyl-6-oxo-1,6-dihydropyridin-3-yl)phenyl)ethyl)-4-(2-hydroxy-2-methylpropyl)-4-phenyl-1,3-diazepan-2-one]

Structure (SMILES)	IC50 [nM]	inhibition at 0.1 µM [%]	Average % inhibition at 100 nM [%]
C=C(C)C[C@]1(c2ccccc2)CCCN([C@@H](C)c2ccc(Br)cc2)C(=O)O1 (single isomer, unassigned) [EXAMPLE 14 Isomer 1]	< 100	97.4	–
C=C(C)C[C@@]1(c2ccccc2)CCCN([C@@H](C)c2ccc(Br)cc2)C(=O)O1 (single isomer, unassigned) [EXAMPLE 14 Isomer 2]	< 100	111	–
